The subject of assay [1] is PGC-1α. Put plainly: PGC-1α expression (Western blotting, real-time RT-PCR). The class given is in vivo, mouse. The following applies: combination therapy together with PD-L1 antibody. On the procedure: RNA was isolated from CD8^+ T cells or tumor cells with the RNeasy Mini Kit (Qiagen), followed by cDNA synthesis by reverse transcription. Real-time PCR for PGC-1α was performed using the following primers: Forward […] (SEQ ID NO: 1) and Reverse […] (SEQ ID NO: 2). To analyze the expression levels of genes associated with apoptosis and mitochondrial energy metabolism, RT2 Profiler PCR Array Gene Expression Kit PAMM-012Z or PAMM-008Z (Qiagen) was used. The list of genes included in this assay can be found in www.sabiosciences.com/Apoptosis.php.
CD8^+ T cells were isolated using mouse CD8 Microbeads (Miltenyi Biotec). After washing with PBS twice, 2×10^6 cells were solubilized in a lysis buffer containing 30 mM Tris-HCl (pH.7.4), 150 mM NaCl, 10% glycerol, 0.1% SDS, 1% Triton-X-100, 0.05% Na-Doc, 5 mM EDTA (pH.8.0), protease inhibitor mixture (Roche Molecular Biochemicals) and phosphatase inhibitors (Nacalai Tesque). After measurement of protein concentrations by DC protein assay (Bio-Rad), 4 μg of proteins was mounted on 4 to 20% gradient Mini-PROTEAN TGX Gels (Bio-Rad) and electroblotted onto nitrocellulose membranes, which were then incubated in a blocking buffer of TBS containing 1% BSA. Primary antibody incubations were carried out overnight at 4° C. in blocking buffer. After washing, secondary antibody incubations were carried out at room temperature for 40 min in blocking buffer. Blots were developed with enhanced chemiluminescence (Amersham Pharmacia). Primary antibodies recognizing the following proteins were used: Phospho-mTOR (P-mTOR) (Cat #5536), Phospho-AMPKa (P-AMPK) (#2535), Phospho-p70 S6 Kinase (P-S6K) (#9205), 4E-BP1 (#9644), Phospho-Acetyl-CoA Carboxylase (P-ACC) (#3661) and SIRT1 (#9475). All the primary antibodies were obtained from Cell Signaling Technology. An antibody recognizing PGC-1α (SC-13067) was obtained from Santa Cruz.
(In western blotting, separated proteins are transferred to a membrane and probed.)

For assay [2], the system named is MC38. Nature of the assay: Mouse therapy model, MC38-bearing mice (tumor volume, survival). The class given is in vivo. Particulars: MC38-bearing mice; for animal survival, triple combination of mTOR activator, AMPK activator and PD-L1 antibody / antitumor effect of triple combination of mTOR activator, AMPK activator and PD-L1 antibody: both activators with PD-L1 antibody; for enhancement of antitumor effect of PD-L1 antibody (tumor volume) / survival rate: reagent combined with PD-L1 antibody vs PD-L1 antibody alone; for antitumor effect when administered alone: reagent alone, no PD-L1 antibody, tumor volume. The procedure: (§1) MC38 (5×10^5) and MethA (5×10^5) cells were intradermally injected on the right flank. MC38 was inoculated into C57BL/6 mice and MethA was inoculated into BALB/c mice. For monotherapy, mice were intraperitoneally injected with 150 μg of PD-L1 mouse antibody (1-111A) (prepared by the laboratory of the present inventors) 5 days after the tumor inoculation. Therapy with PD-L1 antibody alone was repeated three times every 5 days. For combination therapy, administration of PD-L1 antibody and chemical agents started 7 days after tumor injection. Chemical agents were injected at a regular interval of 2 days and PD-L1 antibody at a regular interval of 5 days (shown in FIG. 3b). Tumors were measured on every alternate day, and tumor volumes were calculated using the formula for typical ellipsoid, π×(length×breadth×height/6).
(§2) The following chemical reagents were used at the indicated concentrations for combination therapy. AMPK activator: A769662, 6 mg/kg (Abcam); mTOR activator: MHY1485, 3 μg/kg (Sigma-Aldrich); uncoupler: carbonylcyanide-p-trifluoromethoxyphenylhydrazone (FCCP), 1.2 mg/kg (Abcam); uncoupler: 2,4-Dinitrophenol (DNP), 1.7 mg/kg (Aldrich); SIRT1 activator: resveratrol, 0.5 mg/kg (Abcam); ROS scavenger: Mn (III) tetrakis (4-benzoic acid) porphyrin (MnTBAP), 1.25 mg/kg (Calbiochem); ROS generator: tert-butyl hydroperoxide solution (Luperox TBH70X), 200 μL/kg (Sigma-Aldrich); ATP synthase inhibitor: oligomycin, 250 μg/kg (Sigma-Aldrich); paraquat 2 mg/kg (Nakalai Tesque); oltipraz 1.9 mg/kg (Sigma); bezafibrate 1 mg/kg (ChemCruz).
All reagents were freshly prepared just before use. Each reagent was dissolved in the solvent indicated in the instructions. Note that the AMPK activator, mTOR activator, uncouplers and SIRT1 activator were prepared from fresh unused vials in each series of experiments. Dissolved reagents were diluted in PBS, and a 200 l aliquot was injected per mouse.
Murine colon adenocarcinoma MC38 cells (5×10^5) were inoculated into C57BL/6 mice. After 7 days, anti-PD-L1 antibody (1-111A, 150 μg) and AMPK inhibitor (Compound C: 200 μg in BBS, 200 μL) were administered intraperitoneally. Anti-PD-L1 antibody was administered 3 times at a regular interval of 6 days; Compound C (C.C) was administered 7 times at a regular interval 2 days.
MC38 cells (5×10^5) were inoculated into C57BL/6 mice. After 7 days, anti-PD-L1 antibody (1-111A, 150 μg) and PGC-1α/transcription factor complex activator (2-(4-{2-[(4-chlorobenzoyl)amino]ethyl}phenoxy)-2-methylpropanoic acid (bezafibrate): 10 ug in PBS, 200 ul) were administered intraperitoneally. Anti-PD-L1 antibody was administered 3 times at a regular interval of 6 days; bezafibrate was administered 7 times at a regular interval 2 days.

The test system of assay [3] is MethA. Nature of the assay: Mouse therapy model, MethA-transplanted BALB/c mice (tumor volume). Particulars: MethA in BALB/c mice, combined with PD-L1 antibody. It counts as in vivo. On the procedure:
as §1, §2
MethA cells (5×10^5) were inoculated into BALB/c mice. After 7 days, anti-PD-L1 antibody (1-111A, 80 μg) and Foxo1 inhibitor (5-amino-7-(cyclohexylamino)-1-ethyl-6-fluoro-4-oxo-1,4-dihydroquinoline-3-carboxylic acid, Calbiochem) (2 mg/kg) were administered intraperitoneally.
Fibrosarcoma MethA (Cell Resource Center for Biomedical Research) cells (5×10^5) were inoculated into BALB/c mice. After 7 days, anti-PD-L1 antibody (1-111A, 60 μg) and Aminoleban (Otsuka Pharmaceutical, 400 μl/mouse) were administered.

Assay [4] relates to tumor cells. Put plainly: Phenotypic and transcription profile analysis of tumor cells from mice treated with reagent alone. Details: species or system mouse. The following applies: tumor cells from mice treated with reagent alone in vivo. An excerpt: FIG. 12. […] After enzymatic digestion, tumor cells were sorted with a cell isolation kit capable of excluding non-tumor cells. The isolated tumor cells were further purified with Aria and used in the following experiments. b) Tumor cells were stained with antibodies targeting PD-L1, MHC class I, CD155 (ligand of TIGIT), and VISTA or with dyes for mitochondrial mass, membrane potential, and superoxide. c) Expression levels of genes associated with mitochondrial energy metabolism and apoptosis were examined using RT^2 profiler PCR Kit.
For analyzing draining lymph nodes, cells from axillary, brachial, and inguinal lymph nodes on the right side of tumor-inoculated mice were harvested and mixed. Averaged cell numbers per one lymph node were used as absolute cell numbers. For tumor analysis, tumor tissues were minced into 2- to 3-mm pieces with scissors and digested with collagenase type IV (Thermo Fisher Scientific) using a gentle MACS Dissociator (Miltenyi Biotec). The numbers of tumor cells per mg were used as absolute numbers. Tumor cells were isolated from digested tumor tissues using a Tumor Cell Isolation Kit, mouse (Miltenyi Biotec). This kit purifies tumor cells by excluding lymphocytes, red blood cells, fibroblasts, endothelial cells and tumor-associated stromal cells. The resultant tumor cell population was further isolated/purified with FACS Aria (BD Biosciences). […]

Results on 7 molecules are retold here after patent publication US20230272077A1, “PD-1 SIGNAL INHIBITOR COMBINATION THERAPY” (KYOTO UNIVERSITY, priority 2015, published 2023).

“Also recorded” adds a separate entry of the source.

Turning to `N#Cc1c(O)c2c(-c3ccc(-c4ccccc4O)cc3)csc2[nH]c1=O` [AMPK activator, 6,7-dihydro-4-hydroxy-3-(2′-hydroxy[1,1′-biphenyl]-4-yl)-6-oxo-thieno[2,3-b]pyridine-5-carbonitrile], the “expression levels of PGC-1α protein and mRNA” value in assay [1] is “increased”. Moreover, in assay [2], the “animal survival, triple combination of mTOR activator, AMPK activator and PD-L1 antibody” value is reported as “improved animal survival”; the “antitumor effect of triple combination of mTOR activator, AMPK activator and PD-L1 antibody” value is given as “further enhanced the effect of PD-L1 antibody”; the “enhancement of antitumor effect of PD-L1 antibody (tumor volume)” value (“enhancement” for short) is listed as “moderately augmented the efficacy of PD-1 blockade therapy in the early phase”.
For the molecule `CCn1cc(C(=O)O)c(=O)c2c(N)c(F)c(NC3CCCCC3)cc21` [Foxo1 inhibitor, 5-amino-7-(cyclohexylamino)-1-ethyl-6-fluoro-4-oxo-1,4-dihydroquinoline-3-carboxylic acid], the “enhancement” value is reported as “enhances the efficacy of anti-PD-L1 antibody therapy” in assay [3] and “Synergistic effect” in assay [3] (listed as AS1842856).
On to `CC(C)(C)OO` [Luperox, tert-butyl hydroperoxide], for which the “antitumor activity of triple combination of PD-L1 antibody, DNP and Luperox” value in assay [2] (DNP and Luperox both with PD-L1 antibody) is listed as “stronger antitumor activity; also recorded: Antitumor effect is enhanced”. In assay [2], the “antitumor effect when administered alone” value is on record as “no antitumor activity was observed”, the “enhancement” value is reported as “remarkably enhanced the antitumor effect; also recorded: Synergistic effect” and the survival rate result was “improved the survival rate”. In addition, the “changes in immune-regulatory surface markers and transcriptional profiles of tumor cells” value in assay [4] is listed as “no significant changes; also recorded: little effect on tumor cells in vivo”.
Turning to `O=C(O)c1ccc(-c2c3nc(c(-c4ccc(C(=O)O)cc4)c4ccc([n-]4)c(-c4ccc(C(=O)O)cc4)c4nc(c(-c5ccc(C(=O)O)cc5)c5ccc2[n-]5)C=C4)C=C3)cc1.[Mn+3]` [MnTBAP, Mn (III) tetrakis (4-benzoic acid) porphyrin], the “effect of ROS scavenger on combination therapy using PD-L1 antibody and uncouplers” value in assay [2] (added to PD-L1 antibody + FCCP or DNP) is given as “inhibited”.
As for `Oc1ccc(/C=C/c2cc(O)cc(O)c2)cc1` [Resveratrol, trans-3,5,4′-trihydroxystilbene], in assay [2], the “antitumor effect when administered alone” value is “no tumor growth inhibitory effect was observed”, the “enhancement” value is “remarkably reduced tumor sizes; also recorded: remarkable tumor inhibitory effect” and the survival rate result is given as “improved the survival rate”.
On to `O=[N+]([O-])c1ccc(Nc2nc(N3CCOCC3)nc(N3CCOCC3)n2)cc1` [mTOR activator, 4,6-Di-4-morpholinyl-N-(4-nitrophenyl)-1,3,5-triazin-2-amine], for which the “expression levels of PGC-1α protein and mRNA” value in assay [1] was “increased”. Further, in assay [2], the “animal survival, triple combination of mTOR activator, AMPK activator and PD-L1 antibody” value was “improved animal survival”; the “antitumor effect of triple combination of mTOR activator, AMPK activator and PD-L1 antibody” value is “further enhanced the effect of PD-L1 antibody”; the “enhancement” value is reported as “moderately augmented the efficacy of PD-1 blockade therapy in the early phase”.
With `C[n+]1ccc(-c2cc[n+](C)cc2)cc1.[Cl-].[Cl-]` [paraquat, 1,1′-dimethyl-4,4′-bipyridinium dichloride], the entries for the “enhancement” value in assay [3] and in assay [2] were “enhanced the antitumor effect of PD-L1 antibody” and “enhanced the effect for PD-1 blockade”, respectively.
